Measurements taken from patent US10898476B2, “Heat shock proteins and cholesterol homeostasis” (Orphazyme A/S, priority 2016, dated 2021).

What was measured:
[1] = tested on: LXR targets such as ABCA1, FABP4 and GRAMD1A; assay: RNA sequencing of LXR targets in macrophage foam cells; format: cell-based, human; conditions: during cholesterol efflux; 4 blood donors; FIG. 5
Protocol: FIG. 5 The effect of rHSP70 on transcript levels of selected LXR targets in primary human macrophage foam cells. Macrophage foam cells from 4 individual blood donors were incubated −/+rHSP70 during cholesterol efflux and RNAs were extracted. RNA sequencing was performed by Illumina NextSeq sequencer. RNASeq results were analysed using “Gene Set Enrichment Analysis”. Selected LXR pathway targets modulated by rHSP70 administration were plotted against their transcript count numbers. Front row: FABP4; middle row: GRAMD1A; back row: ABCA1.
(§1) Effect of rHsp70 on the transcript and protein levels of LXR targets in primary human macrophage foam cellsMacrophage foam cells from 4 individual blood donors were incubated −/+rHSP70 during cholesterol efflux and RNAs were extracted. RNA sequencing was performed by Illumina NextSeq sequencer. RNASeq results were analysed using “Gene Set Enrichment Analysis”.

[2] = tested on: LXR targets (ABCA1, GRAMD1A, FABP4); assay: Western blotting of LXR targets in macrophage foam cells; format: cell-based, human; conditions: during cholesterol efflux; FIG. 6
Description: FIG. 6 The effect of rHSP70 on protein levels of selected LXR targets in primary human macrophage foam cells. Cells (as described for FIG. 5) were harvested and equal amounts of protein separated by SDS-PAGE and analyzed by Western blotting. Data are mean±SEM, n=7 blood donors. *: p<0.05; **: p<0.01. (a) ABCA1, (b) GRAMD1A, (c) FABP4.
as §1

[3] = tested on: primary human macrophage foam cells; assay: Cholesterol efflux from acLDL-loaded macrophage foam cells to complete medium, lipids by TLC; format: cell-based
Protocol: FIG. 1 rHSP70 stimulates the removal of cholesterol from primary human macrophage foam cells. Differentiated human macrophages were loaded with acLDL (50 μg/mL) for 3 days. Cholesterol efflux was performed for 12 h to complete medium in the presence or absence of rHSP70 (20 ug/ml). Lipids were analyzed by TLC. Pooled data from 8 blood donors from 8 independent experiments and three technical replicates, mean±SEM.
FIG. 3 The effect of rHsp70 dose and BMP binding on cholesterol efflux from primary human macrophage foam cells. Macrophages were loaded with acLDL followed by cholesterol efflux to complete medium in the absence or presence of rHSP70 as in FIG. 1. Either wild-type or W90F mutant (mut) rHsp70 was employed at the final concentrations of 20 or 200 μg/mL Pooled data from 2 individual donors with 3 technical replicates, mean±SEM.
Human primary white blood cells, isolated from healthy blood donors were acquired form the Finnish Red Cross (permit number 21/2015). Peripheral blood mononuclear cells (PBMCs) were isolated by Ficoll layering (Boyum, A., 1964) with Ficoll-Paque Premium (GE Healthcare). […]
Cells were harvested in 2% NaCl solution and lipids were extracted as described in Bligh and Dyer (1959). […] The TLC plate was charred and free cholesterol and cholesterol ester bands were quantitated using ImageJ. […]

[4] = tested on: acid sphingomyelinase (ASMase); conditions: via binding to bismonoacylglycerophosphate (BMP); Mahalka et al, 2014; cited from earlier work
ABCA1 [5] = assay: ABCA1 mRNA levels by qRT-PCR in macrophage foam cells; format: cell-based, human; conditions: during cholesterol loading and efflux; normalized to 18S mRNA; FIG. 2a
Protocol: (§2) FIG. 2 Effect of rHsp70 on ABCA1 transcript and protein levels in primary human macrophage foam cells. Macrophages were loaded with acLDL followed by cholesterol efflux to complete medium in the absence or presence of rHSP70. (a) The ABCA1 mRNA levels were measured by qRT-PCR. Data are mean±SEM, n=6 blood donors with triplicate measurements. (b) Cells were harvested and equal amounts of protein separated by SDS-PAGE and analyzed by Western blotting using a polyclonal anti-ABCA1 antibody. ProAct staining was used as a loading control. Data are mean±SEM, n=7 blood donors.
(§3) Cells were collected in PBS and centrifuged at 2000 rpm for 10 min at 4° C. Cell pellets were lysed in either RNA lysis buffer or in RIPA buffer containing protease inhibitors for transcript or protein analysis.
Total RNA was isolated using NucleoSpin RNA isolation kit (Macherey-Nagel). 1.5 μg of total RNA was transcribed using SuperScript VILO cDNA synthesis kit (Invitrogen). abca1 primers Fwd 5′-[…], Rev 5′-[…] (Sigma) and 18S primers Fwd 5′-[…], Rev 5′-CCCCGCGAGCACAGA (Sigma) were used for qRT-PCR with Light Cycler 480 SYBER Green I Master Mix (Roche). Reaction mixtures were prepared according to the manufacturer's instructions. Reaction steps: 95° C. 15 min and 40 cycles of 95° C. 15 sec, 60° C. 30 sec and 72° C. 10 sec. […] Relative quantities of mRNAs were normalized to 18S mRNA.

[6] = tested on: primary murine bone marrow macrophage foam cells; assay: BODIPY-cholesterol efflux to 6% HDL enriched serum, confocal imaging; format: cell-based; conditions: 24 h efflux to 6% HDL enriched serum; FIG. 4
Protocol: FIG. 4 rHSP70 speeds up BODIPY-cholesterol efflux from primary murine macrophage foam cells. Primary murine bone marrow macrophage foam cells were incubated with BODIPYcholesteryl linoleate-LDL particles. Cholesterol efflux was performed for 24 h to 6% HDL enriched serum in the presence or absence of rHSP70. Images were taken using Leica SP8 scanning confocal microscope at the indicated time points. (a) Total cell BODIPY-cholesterol intensity changes were calculated using ImageJ and data normalized to 0 h. (b) Representative images of BODIPY-cholesterol intensity changes over time. n=60-100 cells/condition. *: p<0.05.
rHSP70 speeds up BODIPY-cholesterol efflux from primarymurine macrophage foam cells. Primary murine bone marrow macrophage foam cells were incubated with BODIPYcholesteryl linoleate-LDL particles. Cholesterol efflux was performed for 24 h to 6% HDL enriched serum in the presence or absence of rHSP70.

ABCA1 [7] = assay: ABCA1 protein levels by Western blotting in macrophage foam cells; format: cell-based, human; conditions: during cholesterol loading and efflux; FIG. 2b
Protocol: as §2, §3
Protein lysates were cleared by centrifugation at 12000 rpm for 10 min at 4° C. Protein concentration was determined using the Bio-Rad protein assay kit. Equal amount of total protein was loaded on 8% SDS-polyacrylamide gel and Western blotting was performed using polyclonal anti-ABCA1 antibody (1:500, Novus Biologicals). The primary antibody was detected with anti-rabbit secondary antibody (1:2000, Sigma). The blots were developed using the Enhanced Chemiluminiscense kit (Amersham). Protein bands were normalized to Proact membrane stain (Amresco). Quantitation of protein bands was performed using ImageJ program.

rHSP70: His-tagged recombinant wildtype Hsp70 supplied by Orphazyme ApS, Denmark
transcript levels of LXR targets [1]: major transcriptional re-programming | protein levels of LXR targets [2]: These changes can also be seen at the protein level | cholesterol removal (efflux) from foam cells ([3]; 20 ug/ml, 16 h pretreatment during loading, then 12 h efflux to complete medium (RPMI, 10% FBS), FIG. 1, FIG. 3): significantly enhanced | whether a higher dosage improves the cholesterol efflux promoting effect ([3]; 200 ug/ml compared with 20 ug/ml, before and during 12 h efflux, FIG. 3): found not to be the case | activity of acid sphingomyelinase (ASMase) [4]: stabilize and enhance | ABCA1 transcript level (ABCA1 [5]): significant increase | BODIPY-cholesterol efflux [6]: speeds up | ABCA1 protein level (ABCA1 [7]): significant increase
